Article PMC7012052, “Discovery of antimicrobial compounds targeting bacterial type FAD synthetases” (Journal of Enzyme Inhibition and Medicinal Chemistry, 2017)
≈ marks a conversion by molar mass, not a printed value. Counter-ions that a name gives are not always drawn. Like-named read-outs stand apart in the source and are kept apart here.

Experiments:
CaFADS FMNAT activity = target: T1, CaFADS FMNAT activity (Corynebacterium ammoniagenes, UniProt Q59263); assay: FMNAT activity of CaFADS: residual activity, IC50, inhibition mechanism (HPLC); type: biochemical; conditions: for remaining activity at 250 µM: pH 7, read-out: % Residual FMNAT activity; for remaining activity at 50 µM: read-out: Residual activity (FMNAT); for Ki: global Lineweaver–Burk fit
T1 construct: Recombinant CaFADS was overexpressed in BL21 (DE3) E. coli cells and purified as previously described; made in house; host or cells: E. coli BL21 (DE3)
Protocol: (§1) Then, the RFK and FMNAT reactions were individually assayed in the presence of the HTS hits at 25 °C. Reaction mixtures contained 50 µM ATP, 5 µM RF, 0.4 µM CaFADS in 20 mM PIPES, pH 7.0, 0.8 mM MgCl2, when assaying the RFK activity, and 50 µM ATP, 10 µM FMN, 0.4 µM CaFADS in 20 mM PIPES, pH 7.0, 10 mM MgCl2 when measuring the FMNAT reaction. […] Finally, reactions were stopped by boiling the samples at 100 °C for 5 min, and the precipitated protein was eliminated through centrifugation. The transformation of RF into FMN or FAD was evaluated through flavins separation by HPLC, as previously described. […] When assaying the HTS hits against the FMNAT activity of SpnFADS, similar conditions were used but samples contained 3 mM sodium dithionite to maintain the flavin in its reduced state. Data were processed as previously reported. All the experiments were performed in triplicate.
(§2) Experiments were performed and analysed through HPLC as described above. Positive controls (without any hit compound) were included in every reaction set. DMSO concentration was kept at 2.5% in all samples. All the experiments were performed in triplicate.
All the experiments were carried out in 20 mM PIPES, 10 mM MgCl2, pH 7.0, 2.5% DMSO at 25 °C, being the final reaction volume 500 µl. The reactions were initiated by addition of CaFADS at a final concentration of ∼40 nM, followed by 1 min incubation. The flavin composition of the supernatant was analysed as previously described. All the experiments were performed in triplicate. The effect of the inhibitors on Km and Vmax was determined by fitting the data sets to the Michaelis–Menten model. Additionally, data were globally fit to Lineweaver–Burk equations for competitive, uncompetitive, non-competitive or mixed inhibition, yielding Ki, as well as Ki′ when applying, for each compound (Equations (1–4), respectively).

[1] = system: M. tuberculosis ATCC 27,294; assay: MIC by resazurin microplate assay (broth microdilution); type: cell-based, Mycobacterium tuberculosis; conditions: for MIC: read-out: Minimal inhibitory concentration (MIC) M. tuberculosis
CaFADS RFK activity = target: T2, CaFADS RFK activity (Corynebacterium ammoniagenes, UniProt Q59263); assay: RFK activity of CaFADS in the presence of HTS hits (flavins separated by HPLC); type: biochemical; conditions: pH 7, read-out: % Residual RFK activity
T2 construct: Recombinant CaFADS was overexpressed in BL21 (DE3) E. coli cells and purified as previously described; made in house; host or cells: E. coli BL21 (DE3)
Protocol: as §1

[2] = system: C. ammoniagenes ATCC 6872; assay: MIC by resazurin microplate assay (broth microdilution); type: cell-based, Corynebacterium ammoniagenes; conditions: for MIC: Corynebacterium ammoniagenes, ATCC6872, 16 h
S. pneumoniae ATCC 49619 = assay: as above; type: cell-based, Streptococcus pneumoniae; conditions: read-out: Minimal inhibitory concentration (MIC) S. pneumoniae
SpnFADS FMNAT activity = SpnFADS FMNAT activity (Streptococcus pneumoniae, UniProt A0A0H2UPY5); assay: biochemical; conditions: SpnFADS, 25 °C; for IC50: compounds assayed 0–100 μM, read-out: FMNAT activity IC50
Protocol: as §1, §2

SpnFADS RFK activity = SpnFADS RFK activity (Streptococcus pneumoniae, UniProt A0A0H2UPY5); assay: biochemical
Protocol: as §1, §2

CaFADS = target: T3, CaFADS (Corynebacterium ammoniagenes, UniProt Q59263); assay: Isothermal titration calorimetry (ITC) of hits binding to CaFADS; conditions: ITC 25 °C, for 24: Site 1–2
T3 construct: Recombinant CaFADS was overexpressed in BL21 (DE3) E. coli cells and purified as previously described; made in house; host or cells: E. coli BL21 (DE3)
Protocol: ITC experiments were performed to characterise the protein’s affinity for the selected compounds, as also the thermodynamic parameters that drive the interaction. Experiments were carried out in an AutoITC200 (MicroCal) thermostated at 25 °C. In these experiments, ∼400 µM of each compound were used to titrate ∼25 µM CaFADS contained in a 200 µL cell. However, when saturation of the protein was not reached, higher concentrations of compounds were employed. The titrations were performed by stepwise injections of the titrating compound. Up to 19 injections of 2 µl were added to the cell sample and mixed using a 1000 rpm stirrer syringe. The compounds and the protein were dissolved in 20 mM PIPES, pH 7.0, 10 mM MgCl2 and degassed prior to titration. DMSO was added to the protein and ligand samples, until reach a final concentration of 3%. The association constant (Ka), the enthalpy variation (ΔH) and the binding stoichiometry (N), were obtained through non-lineal regression of the data to a model for one or two independent binding sites, implemented in Origin 7.0 (OriginLab) as previously described[27]^,[29]. The entropic contribution (−TΔS), the Gibbs free energy (ΔG) and the dissociation constant (Kd) were obtained through essential thermodynamic equations.

[3] = Mycobacterium tuberculosis, ATCC27, 144 h
[4] = read-out: Minimal inhibitory concentration (MIC) C. ammoniagenes
[5] = Streptococcus pneumoniae, ATCC49619, 10 h
[6] = 100 μM of each compound, n = 3, mean ± SD, read-out: FMNAT activity Res. activity
[7] = SpnFADS, 100 μM of each compound, 25 °C, n = 3, mean ± SD, read-out: RFK activity Res. activity
[8] = SpnFADS, compounds assayed 0–100 μM, 25 °C, read-out: RFK activity IC50
[9] = read-out: Minimal inhibitory concentration (MIC) C. ammoniagenes, assayed 0.125–64 μM, 16 h at 37 °C, BHI
[10] = read-out: RFK activity Res. activity
[11] = assayed 0.125–64 μM, 6 days at 37 °C, Middlebrook 7H9

T2 sequence (Q59263 whole entry): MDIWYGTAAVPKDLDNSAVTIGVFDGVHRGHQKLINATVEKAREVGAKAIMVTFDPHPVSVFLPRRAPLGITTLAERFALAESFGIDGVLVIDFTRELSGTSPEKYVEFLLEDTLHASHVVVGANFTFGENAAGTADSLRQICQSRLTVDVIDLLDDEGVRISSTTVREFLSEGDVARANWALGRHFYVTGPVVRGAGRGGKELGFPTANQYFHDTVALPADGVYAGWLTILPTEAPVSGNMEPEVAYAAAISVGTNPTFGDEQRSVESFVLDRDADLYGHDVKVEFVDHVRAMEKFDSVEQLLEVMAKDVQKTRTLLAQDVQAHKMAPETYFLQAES
T3 sequence (Q59263 whole entry): as above
T1 sequence (Q59263 whole entry): as above
SpnFADS FMNAT activity, sequence (A0A0H2UPY5 entry or part of it): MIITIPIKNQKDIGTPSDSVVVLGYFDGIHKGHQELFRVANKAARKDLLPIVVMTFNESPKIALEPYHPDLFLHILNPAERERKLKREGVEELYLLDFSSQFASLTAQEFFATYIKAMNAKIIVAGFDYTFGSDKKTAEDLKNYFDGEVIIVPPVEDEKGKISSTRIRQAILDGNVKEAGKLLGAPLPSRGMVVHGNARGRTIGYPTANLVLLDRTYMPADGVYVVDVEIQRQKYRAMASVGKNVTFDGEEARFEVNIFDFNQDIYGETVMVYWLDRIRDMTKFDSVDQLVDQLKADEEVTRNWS
SpnFADS RFK activity, sequence (A0A0H2UPY5 entry or part of it): as above

Compound | IC50 (CaFADS FMNAT activity) [µM] | remaining activity at 250 µM (CaFADS FMNAT activity) [%] | remaining activity at 50 µM (CaFADS FMNAT activity) [%] | MIC [1, 3] [µM] | remaining activity at 250 µM (CaFADS RFK activity) [%] | MIC [2, 4] [µM] | MIC (S. pneumoniae ATCC 49619; [5]) [µM] | activity at 100 µM (SpnFADS FMNAT activity; [6]) [%] | IC50 (SpnFADS RFK activity; [8]) [µM] | MIC [2, 9] [µM] | further results
O=C(O)c1cccnc1Nc1cccc(C(F)(F)F)c1 [HTS hit 11] | 9 ± 1.3 | ≤ 5 | 34.6 ± 4.9 | > 64 | ≥ 75 | > 64 | > 64 |  |  |  | 
CCCCCCCCCCCCCCCC[N+](C)(C)CCN(Cc1ccc(OC)cc1)c1ncccn1 [HTS hit 9, thonzonium bromide] |  | ≤ 5 |  | 16 | ≤ 5 | 2 | 1 to 2 | 7 ± 1 | 6 ± 1 | < 2 | IC50 (SpnFADS FMNAT activity): 78 ± 6 µM; activity at 100 µM (SpnFADS RFK activity; [7]): 0%
O=C(O)CCc1nc(-c2ccccc2)c(-c2ccccc2)o1 [HTS hit 43, oxaprozin] | 1 ± 0.5 | ≤ 5 | 20.3 ± 5.2 |  | ≥ 75 |  |  | 100 ± 15 | 14 ± 2 |  | activity at 100 µM (SpnFADS RFK activity; [10]): 32 ± 3%
C/C=C(/C(=C/C)c1ccc(O)cc1)c1ccc(O)cc1 [HTS hit 35, dienestrol] |  | 5 to 50 |  | > 64 | ≤ 5 | 16 to 32 (≈ 4.26 to 8.52 µg/mL) | 64 (≈ 17 µg/mL) |  |  | 2 to 16 (≈ 0.533 to 4.26 µg/mL) | 
verteporfin [HTS hit 47] |  |  |  |  |  |  |  |  |  |  | MIC [1, 11]: 8 µM; Minimal inhibitory concentration (MIC) C. ammoniagenes ([2]; assayed 0.125–64 μM, 16 h at 37 °C, BHI): 2 to 4 µM; MIC (S. pneumoniae ATCC 49619; assayed 0.125–64 μM, 10 h at 37 °C, BHI with 4% FBS): 4 µM
CCc1oc2ccccc2c1C(=O)c1cc(Br)c(O)c(Br)c1 [HTS hit 17, benzbromarone] | 12.8 ± 3.4 | ≤ 5 | 33.5 ± 10.1 | > 64 | ≥ 75 | 8 (≈ 3.39 µg/mL) | > 64 |  |  | 2 to 16 (≈ 0.848 to 6.79 µg/mL) | 
CC(C)n1c(/C=C/C(O)CC(O)CC(=O)O)c(-c2ccc(F)cc2)c2ccccc21 (stereo not drawn) [HTS hit 37, fluvastatin sodium salt] |  | ≤ 5 |  | > 64 | ≤ 5 | > 64 | > 64 | 0 |  |  | IC50 (SpnFADS FMNAT activity): 7 ± 1 µM; IC50 (SpnFADS RFK activity): > 100 µM; activity at 100 µM (SpnFADS RFK activity; [10]): 96 ± 10%
Cc1c(Cl)cccc1Nc1ccccc1C(=O)O [HTS hit 2] | 8.9 ± 1 | ≤ 5 | 41.1 ± 5.2 | > 64 | ≥ 75 | > 64 | > 64 |  | > 100 |  | remaining activity at 100 µM (SpnFADS FMNAT activity; [6]): 100 ± 12%; remaining activity at 100 µM (SpnFADS RFK activity; [10]): 78 ± 10%
Cc1c(Nc2ncccc2C(=O)O)cccc1C(F)(F)F [HTS hit 31, flunixin meglumine] | 6.6 ± 0.6 | ≤ 5 | 24.5 ± 1.9 | > 64 | ≥ 75 | 32 to 64 | > 64 |  |  | > 64 | Inhibition mechanism (CaFADS FMNAT activity; CaFADS FMNAT, saturating ATP (regarding the FMN substrate)): Non-competitive; Inhibition mechanism (CaFADS FMNAT activity; CaFADS FMNAT, saturating FMN (regarding the ATP substrate)): Mixed; K'i (CaFADS FMNAT activity; CaFADS FMNAT, saturating FMN, varying ATP, binding to the CaFADS-ATP complex): 18.4 ± 4.0 µM; Ki (CaFADS FMNAT activity; CaFADS FMNAT, saturating ATP, varying FMN): 0.09 ± 0.03 µM; Ki (CaFADS FMNAT activity; CaFADS FMNAT, saturating FMN, varying ATP): 3.5 ± 1 µM; apparent kcat (CaFADS FMNAT activity; saturating ATP, varying FMN, inhibitor 1 μM): 0.41 ± 0.0483 s⁻¹; apparent kcat (CaFADS FMNAT activity; saturating ATP, varying FMN, inhibitor 4 μM): 0.302 ± 0.0233 s⁻¹; apparent kcat (CaFADS FMNAT activity; saturating ATP, varying FMN, inhibitor 5 μM): 0.107 ± 0.02 s⁻¹; apparent kcat (CaFADS FMNAT activity; saturating ATP, varying FMN, inhibitor 7 μM): 0.05 ± 0.0067 s⁻¹; apparent kcat (CaFADS FMNAT activity; saturating ATP, varying FMN, inhibitor 10 μM): 0.05 ± 0.0067 s⁻¹; apparent kcat (CaFADS FMNAT activity; saturating FMN, varying ATP, inhibitor 4 μM): 0.328 ± 0.0167 s⁻¹; apparent kcat (CaFADS FMNAT activity; saturating FMN, varying ATP, inhibitor 5 μM): 0.288 ± 0.0183 s⁻¹; apparent kcat (CaFADS FMNAT activity; saturating FMN, varying ATP, inhibitor 7 μM): 0.282 ± 0.01 s⁻¹; apparent kcat (CaFADS FMNAT activity; saturating FMN, varying ATP, inhibitor 10 μM): 0.255 ± 0.0217 s⁻¹; apparent kcat (CaFADS FMNAT activity; saturating FMN, varying ATP, inhibitor 12 μM): 0.23 ± 0.0167 s⁻¹; N (binding stoichiometry) (CaFADS; 3% DMSO): ≈ 1; ΔG (CaFADS; average value where N ≈ 2): -6.2 ± 0.6 kcal/mol; ΔH (CaFADS; average value where N ≈ 2): -7.2 ± 0.4 kcal/mol; −TΔS (CaFADS; average value where N ≈ 2): 1.1 ± 0.1 kcal/mol; Kd (CaFADS; Kd, 3% DMSO, average value for two hit molecules where N ≈ 2): 30.9 ± 2.8 µM
CN1CCCN=C1/C=C/c1cccc(O)c1 [HTS hit 19, oxantel pamoate] | 20.8 ± 2.6 | ≤ 5 | 43.3 ± 3.9 |  | ≥ 75 |  |  |  |  |  | 
O=C(O)c1cc(/N=N/c2ccc(S(=O)(=O)Nc3ccccn3)cc2)ccc1O [HTS hit 8, sulfasalazine] |  | 5 to 50 |  |  | ≥ 75 |  |  |  |  |  | 
CCCCC(CC)CNC(=N)NC(=N)NCCCCCCNC(=N)NC(=N)NCC(CC)CCCC (stereo not drawn) [HTS hit 33, alexidine dihydrochloride] |  | ≤ 5 |  | 2 to 4 | ≤ 5 | 0.125 | 0.5 | 93 ± 11 | 33 ± 4 | < 2 | IC50 (SpnFADS FMNAT activity): > 100 µM; activity at 100 µM (SpnFADS RFK activity; [7]): 26 ± 3%; Minimal inhibitory concentration (MIC) M. tuberculosis [1, 11]: below 8 μM
CC/C(=C(/CC)c1ccc(O)cc1)c1ccc(O)cc1 [HTS hit 32, diethylstilbestrol] |  | 5 to 50 |  | > 64 | 50 to 75 | 8 (≈ 2.15 µg/mL) | 64 (≈ 17.2 µg/mL) |  |  | 2 to 16 (≈ 0.537 to 4.29 µg/mL) | 
